{
  "source": "ChEMBL document CHEMBL4406923",
  "about": "“New Potent DOT1L Inhibitors for in Vivo Evaluation in Mouse” (ACS Med Chem Lett, 2019)",
  "molecular_target": "T1, Histone-arginine methyltransferase CARM1 (Homo sapiens) (UniProt Q86X55)",
  "T1 sequence (whole entry)": "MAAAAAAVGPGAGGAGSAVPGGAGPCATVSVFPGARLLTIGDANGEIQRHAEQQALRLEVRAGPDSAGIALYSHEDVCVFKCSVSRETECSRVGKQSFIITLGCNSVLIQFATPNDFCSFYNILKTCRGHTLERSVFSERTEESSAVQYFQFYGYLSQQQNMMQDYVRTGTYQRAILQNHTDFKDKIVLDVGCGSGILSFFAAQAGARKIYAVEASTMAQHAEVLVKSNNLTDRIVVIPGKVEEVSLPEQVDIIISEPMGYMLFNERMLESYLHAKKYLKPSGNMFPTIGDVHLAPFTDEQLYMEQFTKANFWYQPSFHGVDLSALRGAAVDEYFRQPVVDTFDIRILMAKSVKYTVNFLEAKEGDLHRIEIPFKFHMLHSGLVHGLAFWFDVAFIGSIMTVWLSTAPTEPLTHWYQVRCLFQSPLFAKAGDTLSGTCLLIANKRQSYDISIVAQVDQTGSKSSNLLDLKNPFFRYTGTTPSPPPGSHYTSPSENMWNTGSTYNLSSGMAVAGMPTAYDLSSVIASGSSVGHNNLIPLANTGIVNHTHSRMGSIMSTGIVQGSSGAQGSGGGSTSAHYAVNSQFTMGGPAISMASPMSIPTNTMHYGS",
  "test": "Inhibition of CARM1 (unknown origin) at <5 uM using histone H3 peptide (1 to 21) as substrate in presence of co-factor SAM by LC-MS analysis",
  "note": "Active and inactive are the calls of the source. The rule behind the calls is not given here.",
  "data": [
    {"smiles": "COc1nc(Nc2cc(S(C)(=O)=O)ccc2N[C@@H](c2cccc3c2OC(F)(F)O3)c2ncccc2Cl)nc(N2CCNCC2)n1", "values": [
      {"measurement": "inhibition", "value": "inactive"}
    ]}
  ]
}
